Laboratory results reported in paper PMC6315844, “Two Novel Multi-Functional Peptides from Meat and Visceral Mass of Marine Snail Neptunea arthritica cumingii and Their Activities In Vitro and In Vivo” (Marine Drugs, 2018).
No end group written: not given here.

Columns and labels:
[1] = DPPH radical scavenging activity; settings: for DPPH Radical Scavenging Activity (%): fractions purified from M-F and VM-F using HILIC, all at the same concentration (not given), n = 3, mean ± SD; for EC50: natural purified peptide, Figure 3a, tests repeated three times, read-out: EC50 values of active peptides: DPPH
Experimental: The DPPH radical scavenging activity of the two peptide fractions was determined according to the methods described by Lee et al.. Vitamin C was used as a positive control. The EC50 values for DPPH radical scavenging was determined.

[2] = Hydroxyl radical scavenging activity; settings: natural purified peptide; Figure 3a; tests repeated three times; read-out: EC50 values of active peptides: OH
Experimental: The hydroxyl radical scavenging activity of peptide fractions was determined according to the methods described by Dong et al.. Vitamin C was used as a positive control. The hydroxyl radical activity of active peptides was evaluated by EC50.

[3] = Ferric reducing capacity (reducing power, FRAP); settings: natural purified peptide, Figure 3a, tests repeated three times, read-out: EC50 values of active peptides: FRAP
Experimental: The reducing power of the peptide fractions was assayed as described by Moayedi et al.. Vitamin C was used as a positive control. The reducing power of active peptides was assayed by determining EC50 values.

[4] = target: T1, angiotensin-converting enzyme (from the rabbit lung) (Oryctolagus cuniculus, UniProt P12822); test: ACE-inhibitory activity; type: biochemical; settings: for ACE-Inhibitory Activity (%): fractions purified from M-F and VM-F using HILIC, all at the same concentration (not given), n = 3, mean ± SD; for EC50: natural purified peptide, Figure 3a, tests repeated three times, read-out: EC50 values of active peptides: ACE
T1 construct: angiotensin-converting enzyme (0.25 U·mL^−1, from the rabbit lung); purchased Sigma-Aldrich (Shanghai, China); host or cells: rabbit lung (tissue-derived)
T1 sequence (P12822 34-1310): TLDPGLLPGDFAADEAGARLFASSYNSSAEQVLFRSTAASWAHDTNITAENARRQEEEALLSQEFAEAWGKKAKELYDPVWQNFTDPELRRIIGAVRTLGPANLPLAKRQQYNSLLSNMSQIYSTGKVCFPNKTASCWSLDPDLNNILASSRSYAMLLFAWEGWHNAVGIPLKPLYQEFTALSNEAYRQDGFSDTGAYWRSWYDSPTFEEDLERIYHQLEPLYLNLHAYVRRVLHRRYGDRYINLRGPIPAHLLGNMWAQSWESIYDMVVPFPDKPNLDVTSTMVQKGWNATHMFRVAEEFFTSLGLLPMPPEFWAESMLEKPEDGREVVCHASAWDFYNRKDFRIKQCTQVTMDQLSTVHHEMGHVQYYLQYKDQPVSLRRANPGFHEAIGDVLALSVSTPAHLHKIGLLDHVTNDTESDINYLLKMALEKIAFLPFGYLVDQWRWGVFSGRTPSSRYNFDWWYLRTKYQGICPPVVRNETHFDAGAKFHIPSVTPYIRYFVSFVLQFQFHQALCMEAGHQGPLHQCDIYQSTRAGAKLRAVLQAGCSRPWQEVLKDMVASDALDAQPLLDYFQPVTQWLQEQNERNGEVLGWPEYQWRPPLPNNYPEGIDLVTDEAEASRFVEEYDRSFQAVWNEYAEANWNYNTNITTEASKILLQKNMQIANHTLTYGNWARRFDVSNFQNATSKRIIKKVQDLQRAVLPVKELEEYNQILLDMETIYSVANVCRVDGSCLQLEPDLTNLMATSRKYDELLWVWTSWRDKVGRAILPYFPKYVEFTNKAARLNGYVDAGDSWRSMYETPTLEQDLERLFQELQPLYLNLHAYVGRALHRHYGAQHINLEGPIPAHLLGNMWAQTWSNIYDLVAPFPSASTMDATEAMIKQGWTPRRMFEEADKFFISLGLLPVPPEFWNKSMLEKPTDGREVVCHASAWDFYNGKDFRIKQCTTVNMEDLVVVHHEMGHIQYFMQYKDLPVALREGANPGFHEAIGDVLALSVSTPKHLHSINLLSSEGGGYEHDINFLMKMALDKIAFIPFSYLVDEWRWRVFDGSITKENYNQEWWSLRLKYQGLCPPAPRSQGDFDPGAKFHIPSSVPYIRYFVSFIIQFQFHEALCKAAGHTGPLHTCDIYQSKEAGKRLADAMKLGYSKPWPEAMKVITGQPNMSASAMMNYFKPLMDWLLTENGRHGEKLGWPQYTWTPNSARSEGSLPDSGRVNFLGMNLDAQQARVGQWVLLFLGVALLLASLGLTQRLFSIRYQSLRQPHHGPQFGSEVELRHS
From the text: (§1) DPPH, angiotensin-converting enzyme (0.25 U·mL^−1, from the rabbit lung), N-hippuryl-His-Leu hydrate (HHL), hippuric acid, and amino acid standards were purchased from Sigma-Aldrich (Shanghai, China). α-Glucosidase protease (50 U/mg, from yeast), α-amylase protease (50 U/mg, from Bacillus subtilis), acarbose, 4-nitrophenyl-β-D-galactopyranoside, 6-aminoquinolyl-N-hydroxysuccinimidyl carbamate (AQC), ribonuclease (13,700 Da, from the bovine pancreas), aprotinin hydrochloride (6511 Da, from the bovine lung), angiotensin II (1046 Da), and L-serine (105 Da) were purchased from Yuanye Biological Technology Co. (Shanghai, China). Trypsin (250 U/mg), pepsin (250 U/mg), Sephadex G25 gel, nifedipine, and vitamin C were purchased from Solarbio (Beijing, China). Transgenic zebrafish Tg (krt4:NTR-hKikGR)^cy17 are maintained in our lab. All chemicals and reagents used for HPLC were of chromatographic grade and other chemicals and reagents were of analytical grade.
ACE-inhibitory activity was measured according to the methods of Chen et al.. Nifedipine was used as a positive control. Results were reported as EC50 values.

[5] = tested on: α-amylase (from Bacillus subtilis); test: α-Amylase inhibitory activity; type: biochemical; settings: for α-Amylase Inhibitory Activity (%): fractions purified from M-F and VM-F using HILIC, all at the same concentration (not given), n = 3, mean ± SD; for EC50: natural purified peptide, Figure 3a, tests repeated three times, read-out: EC50 values of active peptides: α-amylase
From the text: as §1
(§2) α-Amylase and α-glucosidase inhibitory activities were assayed as described by Uraipong et al.. Acarbose was used as a positive control. The inhibitory activity of active peptides was expressed as the EC50 value.

[6] = target: α-glucosidase (from yeast); test: α-Glucosidase inhibitory activity; type: biochemical; settings: natural purified peptide; Figure 3a; tests repeated three times; read-out: EC50 values of active peptides: α-glucosidase
From the text: as §1, §2

[7] = tested on: Tg (krt4:NTR-hKikGR)cy17 zebrafish; test: In vivo antioxidant activity in MTZ-treated transgenic zebrafish embryos (skin fluorescent spots); set-up: species or system zebrafish (Danio rerio); settings: 10 mM MTZ, 24 h, 28 °C, n = 10
From the text: For Tg (krt4:NTR-hKikGR)^cy17 zebrafish, MTZ treatment can lead to ROS overproduction, apoptosis of skin cells, and reduction of fluorescence spots on skin; thus, this model is used to assess ROS scavenging capacity of sample by measuring the growth rate of fluorescent spots (FS) on the skin of Tg (krt4:NTR-hKikGR)^cy17 transgenic zebrafish. Sample with antioxidant activity can remove ROS from transgenic zebrafish and prevent the skin cell apoptosis.
The number of fluorescence spots on the skin will increase after incubation with antioxidant. Thus, we can evaluate the ROS scavenging ability of samples on the basis of changes in the number of fluorescence spots compared with the MTZ-treatment. The in vivo antioxidant activity of the active peptides was evaluated according to previously described methods with some modification using the transgenic zebrafish line Tg (krt4:NTR-hKikGR)^cy17. Twenty-four-hour-old transgenic zebrafish embryos were added to 24-well cell culture plates (10 embryos/well) and incubated with 2 mL of 10 mM MTZ (dissolved in fish water) and active peptides for 24 h at 28 °C. […] After incubation, zebrafish embryos were anesthetized with tricaine (0.16%, w/v), and fluorescence was observed using an FSX100 Bio Imaging Navigator instrument. FS were counted using ImagePro-Plus, and the in vivo antioxidant activity (%) of active peptides was determined by Equation 1. […]

[8] = Thermal stability of synthetic peptides (DPPH and ACE activity retained); type: physicochemical; settings: incubated at 20, 40, 60 and 80 °C, samples 90 to 1800 μg/mL, p > 0.05
Experimental: A series of samples with concentration range from 90 μg/mL (corresponding to 69.28 μM and 93.26 μM for [sequence] and [sequence], respectively) to 1800μg/mL were used in stability analysis.

[9] = synthetic peptides; simulated gastrointestinal digestion; samples 90 to 1800 μg/mL; p > 0.05
Experimental: A series of samples with concentration range from 90 μg/mL (corresponding to 69.28 μM and 93.26 μM for […] and […], respectively) to 1800μg/mL were used in stability analysis.
Thermal stability and gastrointestinal digestion stability of two synthetic peptides were determined according to Chen et al.. The incubated temperature for peptide solutions was set as 20, 40, 60, and 80 °C, respectively. DPPH radical scavenging activities and ACE inhibitory activities of the peptide solutions were measured as the above description.

[10] = tested on: ACE; settings: data recorded in biopep database; read-out: EC50 (ACE inhibition); cited from earlier work
From the text: ACE catalyzes the conversion of angiotensin I to angiotensin II, a potent vasoconstrictor, and promotes degradation of the vasodilator bradykinin [31]; thus, inhibition of ACE activity may help with reducing blood pressure. Because high-molecular-weight peptides cannot occupy the active site of ACE [32], ACE-inhibitory peptides are typically 2–30 amino acids in length.

[11] = target: T2, angiotensin-converting enzyme (from the rabbit lung) (rabbit) (UniProt P12822)
T2 sequence: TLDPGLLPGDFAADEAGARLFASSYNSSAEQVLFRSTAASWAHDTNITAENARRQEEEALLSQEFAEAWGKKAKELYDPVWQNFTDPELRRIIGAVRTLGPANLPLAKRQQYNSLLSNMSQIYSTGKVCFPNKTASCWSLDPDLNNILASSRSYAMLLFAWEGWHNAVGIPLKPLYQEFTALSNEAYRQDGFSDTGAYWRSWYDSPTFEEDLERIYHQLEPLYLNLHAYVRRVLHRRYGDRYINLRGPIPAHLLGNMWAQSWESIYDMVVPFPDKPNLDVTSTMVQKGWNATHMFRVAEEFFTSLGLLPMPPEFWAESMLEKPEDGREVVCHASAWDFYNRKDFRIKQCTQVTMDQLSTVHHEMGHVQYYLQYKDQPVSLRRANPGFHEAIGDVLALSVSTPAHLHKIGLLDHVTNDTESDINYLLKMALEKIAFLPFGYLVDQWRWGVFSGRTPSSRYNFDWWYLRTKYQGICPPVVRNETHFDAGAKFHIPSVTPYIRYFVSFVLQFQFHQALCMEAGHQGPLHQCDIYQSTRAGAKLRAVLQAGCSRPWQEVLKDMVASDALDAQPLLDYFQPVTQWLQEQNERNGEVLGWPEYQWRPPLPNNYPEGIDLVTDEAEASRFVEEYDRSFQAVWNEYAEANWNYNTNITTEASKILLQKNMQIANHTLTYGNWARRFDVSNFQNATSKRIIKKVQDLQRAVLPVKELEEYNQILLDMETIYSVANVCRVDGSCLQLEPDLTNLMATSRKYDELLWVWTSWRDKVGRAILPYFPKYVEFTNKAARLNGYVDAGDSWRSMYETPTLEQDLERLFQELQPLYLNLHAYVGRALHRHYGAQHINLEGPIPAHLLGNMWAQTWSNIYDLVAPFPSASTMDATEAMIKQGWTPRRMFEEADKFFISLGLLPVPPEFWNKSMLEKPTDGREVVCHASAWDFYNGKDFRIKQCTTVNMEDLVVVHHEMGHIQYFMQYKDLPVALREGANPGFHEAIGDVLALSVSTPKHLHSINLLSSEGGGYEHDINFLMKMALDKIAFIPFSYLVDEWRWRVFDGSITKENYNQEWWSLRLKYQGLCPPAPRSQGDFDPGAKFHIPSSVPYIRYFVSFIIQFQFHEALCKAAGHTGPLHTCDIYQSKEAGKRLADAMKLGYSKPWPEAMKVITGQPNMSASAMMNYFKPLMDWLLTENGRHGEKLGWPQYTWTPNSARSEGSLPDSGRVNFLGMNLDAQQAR

YIAEDAER [VM-P7, Tyr-Ile-Ala-Glu-Asp-Ala-Glu-Arg]
DPPH Radical Scavenging Activity (%) [1]: 82.60 ± 0.86%
EC50 [1]: 185 µM
EC50 [2]: 814 µM
EC50 [3]: 856 µM
ACE-Inhibitory Activity (%) [4]: 74.95 ± 1.24%
EC50 [4]: 236 µM
α-Amylase Inhibitory Activity (%) [5]: 53.85 ± 0.92%
EC50 [5]: 942 µM
EC50 [6]: 823 µM
number of fluorescent spots (FS) compared with negative control (MTZ without peptides) ([7]; low concentration): no significant difference
effect of thermal treatment on EC50 values of DPPH radical scavenging and ACE inhibitory activities [8]: have thermal and gastrointestinal stability
effect of gastrointestinal digestion treatment on EC50 values of DPPH radical scavenging and ACE inhibitory activities [9]: have thermal and gastrointestinal stability

YIPIQYVLSR
EC50 [10]: 132 µM

YLYEIAR
EC50 [10]: 16 µM

YLYEIARR
EC50 [10]: 86 µM

YSQLENEFDR [M-P6, Tyr-Ser-Gln-Leu-Glu-Asn-Glu-Phe-Asp-Arg]
DPPH Radical Scavenging Activity (%) [1]: 91.87 ± 0.62%
EC50 [1]: 96.7 µM
EC50 [2]: 234 µM
EC50 [3]: 430 µM
ACE-Inhibitory Activity (%) [4]: 84.81 ± 0.35%
EC50 [4]: 75.6 µM
α-Amylase Inhibitory Activity (%) [5]: 56.15 ± 1.64%
EC50 [5]: 692 µM
EC50 [6]: 589 µM
number of fluorescent spots (FS) compared to the control group (no MTZ or peptides) ([7]; high concentration): more FS were detected
effect of thermal treatment on EC50 values of DPPH radical scavenging and ACE inhibitory activities [8]: have thermal and gastrointestinal stability
effect of gastrointestinal digestion treatment on EC50 values of DPPH radical scavenging and ACE inhibitory activities [9]: have thermal and gastrointestinal stability

YSQLENEFDR [… (Tyr-Ser-Gln-Leu-Glu-Asn-Glu-Phe-Asp-Arg)]
ACE-inhibitory activity (%) of the HILIC-purified fraction M-P6 (enzyme activity; all fractions at the same concentration) [11]: 84.8%

YIAEDAER [YIAEDAER (Tyr-Ile-Ala-Glu-Asp-Ala-Glu-Arg)]
ACE-inhibitory activity (%) of the HILIC-purified fraction VM-P7 (enzyme activity; all fractions at the same concentration) [11]: 75%
